Measurements: patent US20210253562A1, “ACYLSUFONAMIDE COMPOUNDS USEFUL AS EP3 RECEPTOR ANTAGONISTS” (Janssen Pharmaceutica NV, priority 2018, published 2021)

Legend:
[1] = biological target: T1, EP3 membrane (EP3 receptor) (Homo sapiens, UniProt P43115); assay: [3H]-PGE2 binding; EP3 competition binding (SPA)
T1 construct: purchased Millipore HTS092M
T1 sequence (P43115 1-390): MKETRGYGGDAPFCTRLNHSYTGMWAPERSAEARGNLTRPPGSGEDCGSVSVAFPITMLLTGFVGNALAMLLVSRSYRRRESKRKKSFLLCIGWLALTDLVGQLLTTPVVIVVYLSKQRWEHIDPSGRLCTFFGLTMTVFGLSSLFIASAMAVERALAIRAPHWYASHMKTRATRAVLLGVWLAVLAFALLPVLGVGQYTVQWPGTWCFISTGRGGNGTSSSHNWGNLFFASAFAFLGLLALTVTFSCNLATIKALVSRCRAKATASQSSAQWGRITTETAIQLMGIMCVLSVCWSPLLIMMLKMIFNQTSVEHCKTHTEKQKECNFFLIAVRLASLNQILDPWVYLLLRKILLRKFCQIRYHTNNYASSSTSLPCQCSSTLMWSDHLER
Summary of the method: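 SPA competition at room temperature, 2 h: EP3 membranes 2 μg/well, 2 nM [3H]-PGE2, 0.1% DMSO, in Tris/MgCl2/EDTA buffer pH 7.4. Compounds in 1:3 serial dilution; scintillation read; Ki by one-site nonlinear fit.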

[2] = biological target: T2, CHO cells over-expressing the EP3 receptor (Homo sapiens, UniProt P43115); assay: CHO cell cAMP assay; EP3 cAMP antagonist dose response (sulprostone reference), HTRF; assay type: cell-based; conditions: sulprostone 700 nM (EC80) and FSK 2 μM (EC70); read-out: CHO_cAMP IC50
T2 construct: expressed in transfected cells; host or cells: CHO cells
T2 sequence (P43115 1-390): T1 sequence (P43115 1-390)
Summary of the method: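 EP3-overexpressing CHO cells pre-incubated with test compound, then stimulated 30 min at 37 °C with FSK (2 μM, EC70) plus sulprostone (700 nM, EC80); antagonism seen as restored cAMP. cAMP measured by HTRF 665/615 ratio, converted via on-plate standard curve. IC50 from Hill fit of 11-point dosing.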

SMILES | Ki [1] [nM] | IC50 [2] [nM]
O=C(NC/C=C1\CCCc2cnn(Cc3ccc4ccccc4c3)c21)NS(=O)(=O)c1cc(Cl)c(Cl)s1 [Compound #88, (E)-4,5-dichloro-N-((2-(1-(naphthalen-2-ylmethyl)-1,4,5,6-tetrahydro-7H-indazol-7-ylidene)ethyl)carbamoyl)thiophene-2-sulfonamide] | 104 | 554
COc1ccc(Cl)cc1S(=O)(=O)NC(=O)NC/C(F)=C1\CCCc2cnn(Cc3ccc(Cl)cc3Cl)c21 [Compound #89, (Z)-5-chloro-N-((2-(1-(2,4-dichlorobenzyl)-1,4,5,6-tetrahydro-7H-indazol-7-ylidene)-2-fluoroethyl)carbamoyl)-2-methoxybenzenesulfonamide] | 26 | 160
COc1ccc(F)cc1S(=O)(=O)NC(=O)NC/C(F)=C1\CCCc2cnn(Cc3ccc(Cl)cc3Cl)c21 [Compound #90, (Z)—N-((2-(1-(2,4-dichlorobenzyl)-1,4,5,6-tetrahydro-7H-indazol-7-ylidene)-2-fluoroethyl)carbamoyl)-5-fluoro-2-methoxybenzenesulfonamide] | 37 | 272
O=C(NC/C(F)=C1\CCCc2cnn(Cc3ccc(Cl)cc3Cl)c21)NS(=O)(=O)c1cccc(Cl)c1 [Compound #91, (Z)-3-chloro-N-((2-(1-(2,4-dichlorobenzyl)-1,4,5,6-tetrahydro-7H-indazol-7-ylidene)-2-fluoroethyl)carbamoyl)benzenesulfonamide] | 18 | 34
O=C(NC/C=C1\CCCc2cnn(-c3cccc(C(F)(F)F)c3)c21)NS(=O)(=O)c1cc(Cl)c(Cl)s1 [Compound #92, (E)-4,5-dichloro-N-((2-(1-(3-(trifluoromethyl)phenyl)-1,4,5,6-tetrahydro-7H-indazol-7-ylidene)ethyl)carbamoyl)thiophene-2-sulfonamide] | 17 | 214
O=C(C/C(F)=C1\CCCc2cnn(Cc3ccc(Cl)cc3Cl)c21)NS(=O)(=O)c1cc(Cl)c(Cl)s1 [Compound #93, (Z)-3-(1-(2,4-dichlorobenzyl)-1,4,5,6-tetrahydro-7H-indazol-7-ylidene)-N-((4,5-dichlorothiophen-2-yl)sulfonyl)-3-fluoropropanamide] | 6 | 17
O=C(NC/C=C1\CCCc2cnn(-c3ncc(Br)cn3)c21)NS(=O)(=O)c1ccc(Cl)cc1 [Compound #94, (E)-N-((2-(1-(5-bromopyrimidin-2-yl)-1,4,5,6-tetrahydro-7H-indazol-7-ylidene)ethyl)carbamoyl)-4-chlorobenzenesulfonamide] | 750 | 11100
O=C(NC/C(F)=C1/CCCc2onc(-c3ccc(Cl)cc3)c21)NS(=O)(=O)c1ccc(Cl)cc1 [Compound #96, (E)-4-chloro-N-((2-(3-(4-chlorophenyl)-6,7-dihydrobenzo[d]isoxazol-4(5H)-ylidene)-2-fluoroethyl)carbamoyl)benzenesulfonamide] | > 10000 | > 20000
O=C(NC/C(F)=C1\CCCc2onc(-c3ccc(Cl)cc3)c21)NS(=O)(=O)c1ccc(Cl)cc1 [Compound #97, (Z)-4-chloro-N-((2-(3-(4-chlorophenyl)-6,7-dihydrobenzo[d]isoxazol-4(5H)-ylidene)-2-fluoroethyl)carbamoyl)benzenesulfonamide] | 4900 | > 20000
O=C(NC/C(F)=C1\CCCCc2cnn(Cc3ccc(Cl)cc3Cl)c21)NS(=O)(=O)c1ccc(Cl)cc1 [Compound #98, (Z)-4-chloro-N-((2-(1-(2,4-dichlorobenzyl)-4,5,6,7-tetrahydrocyclohepta[c]pyrazol-8(1H)-ylidene)-2-fluoroethyl)carbamoyl)benzenesulfonamide] | 171 | 120
O=C(NC/C=C1\CCCc2cnn(-c3ccc(-c4ccccc4)cc3)c21)NS(=O)(=O)c1cc(Cl)c(Cl)s1 [Compound #99, (E)-N-((2-(1-([1,1′-biphenyl]-4-yl)-1,4,5,6-tetrahydro-7H-indazol-7-ylidene)ethyl)carbamoyl)-4,5-dichlorothiophene-2-sulfonamide] | 1 | 9
O=C(NC/C(F)=C1/c2c(cnn2Cc2ccc(Cl)cc2Cl)CCC1F)NS(=O)(=O)c1cc(Cl)c(Cl)s1 (stereo not drawn) [Compound #100, (E)-4,5-dichloro-N-((2-(1-(2,4-dichlorobenzyl)-6-fluoro-1,4,5,6-tetrahydro-7H-indazol-7-ylidene)-2-fluoroethyl)carbamoyl)thiophene-2-sulfonamide] | 3 | 7
O=C(NC/C(F)=C1/c2c(cnn2Cc2ccc(Cl)cc2Cl)CCC1F)NS(=O)(=O)c1ccc(Cl)cc1 (stereo not drawn) [Compound #101, (E)-4-chloro-N-((2-(1-(2,4-dichlorobenzyl)-6-fluoro-1,4,5,6-tetrahydro-7H-indazol-7-ylidene)-2-fluoroethyl)carbamoyl)benzenesulfonamide] | 53 | 144
O=C(NC/C(F)=C1/CCCCc2cnn(Cc3ccc(Cl)cc3Cl)c21)NS(=O)(=O)c1ccc(Cl)cc1 [Compound #102, (E)-4-chloro-N-((2-(1-(2,4-dichlorobenzyl)-4,5,6,7-tetrahydrocyclohepta[c]pyrazol-8(1H)-ylidene)-2-fluoroethyl)carbamoyl)benzenesulfonamide] | > 10000 | > 20000
COc1ccc(Cl)cc1S(=O)(=O)NC(=O)NC/C(F)=C1/c2c(cnn2Cc2ccc(Cl)cc2Cl)CCC1F (stereo not drawn) [Compound #103, (E)-5-chloro-N-((2-(1-(2,4-dichlorobenzyl)-6-fluoro-1,4,5,6-tetrahydro-7H-indazol-7-ylidene)-2-fluoroethyl)carbamoyl)-2-methoxybenzenesulfonamide] | 54 | 228
O=C(NC/C(F)=C1\COCc2cnn(-c3cccc(C(F)(F)F)c3)c21)NS(=O)(=O)c1ccc(Cl)cc1 [Compound #104, (E)-4-chloro-N-((2-fluoro-2-(1-(3-(trifluoromethyl)phenyl)-1,4-dihydropyrano[4,3-c]pyrazol-7(6H)-ylidene)ethyl)carbamoyl)benzenesulfonamide] | > 10000 | > 20000
COc1ccc(-n2ncc3c2/C(=C/CNC(=O)NS(=O)(=O)c2ccc(Cl)cc2)CCC3)cn1 [Compound #105, (E)-4-chloro-N-((2-(1-(6-methoxypyridin-3-yl)-1,4,5,6-tetrahydro-7H-indazol-7-ylidene)ethyl)carbamoyl)benzenesulfonamide] | 238 | 294
COc1ccc(Cl)cc1S(=O)(=O)NC(=O)NC/C(F)=C1/CCCc2cnn(-c3ccc4ccccc4c3)c21 [Compound #106, (E)-5-chloro-N-((2-fluoro-2-(1-(naphthalen-2-yl)-1,4,5,6-tetrahydro-7H-indazol-7-ylidene)ethyl)carbamoyl)-2-methoxybenzenesulfonamide] | > 10000 | > 20000
COc1ccc(-n2ncc3c2/C(=C/CNC(=O)NS(=O)(=O)c2cc(Cl)c(Cl)s2)CCC3)cn1 [Compound #107, (E)-4,5-dichloro-N-((2-(1-(6-methoxypyridin-3-yl)-1,4,5,6-tetrahydro-7H-indazol-7-ylidene)ethyl)carbamoyl)thiophene-2-sulfonamide] | 2 | 27
Cc1nn(Cc2ccc(Cl)cc2Cl)c2c1CCC/C2=C(/F)CNC(=O)NS(=O)(=O)c1cc(Cl)c(Cl)s1 [Compound #109, (Z)-4,5-dichloro-N-((2-(1-(2,4-dichlorobenzyl)-3-methyl-1,4,5,6-tetrahydro-7H-indazol-7-ylidene)-2-fluoroethyl)carbamoyl)thiophene-2-sulfonamide] | 7 | 60
O=C(NC/C(F)=C1/CCCc2cnn(-c3ccc4ccccc4c3)c21)NS(=O)(=O)c1ccc2c(c1)OCCO2 [Compound #110, (E)-N-((2-fluoro-2-(1-(naphthalen-2-yl)-1,4,5,6-tetrahydro-7H-indazol-7-ylidene)ethyl)carbamoyl)-2,3-dihydrobenzo[b][1,4]dioxine-6-sulfonamide] | > 10000 | > 20000
O=C(NC/C(F)=C1\CCCc2cnn(Cc3ccc(Cl)cc3Cl)c21)NS(=O)(=O)c1cc2ccccc2o1 [Compound #111, (Z)—N-((2-(1-(2,4-dichlorobenzyl)-1,4,5,6-tetrahydro-7H-indazol-7-ylidene)-2-fluoroethyl)carbamoyl)benzofuran-2-sulfonamide] | 59 | 399
COc1ccc(F)cc1S(=O)(=O)NC(=O)NC/C(F)=C1/CCCc2cnn(-c3ccc4ccccc4c3)c21 [Compound #112, (E)-5-fluoro-N-((2-fluoro-2-(1-(naphthalen-2-yl)-1,4,5,6-tetrahydro-7H-indazol-7-ylidene)ethyl)carbamoyl)-2-methoxybenzenesulfonamide] | > 10000 | > 20000
COc1ccc(F)cc1S(=O)(=O)NC(=O)NC/C(F)=C1\CCCc2cnn(-c3ccc4ccccc4c3)c21 [Compound #113, (Z)-5-fluoro-N-((2-fluoro-2-(1-(naphthalen-2-yl)-1,4,5,6-tetrahydro-7H-indazol-7-ylidene)ethyl)carbamoyl)-2-methoxybenzenesulfonamide] | 4100 | 6900
